Measurements reported in ChEMBL document CHEMBL4804286, “3-amino-4-(4-(4 (dimethylcarbamoyl) phenyl)-1,4-diazepan-1-yl) thieno [2,3-b] pyridine-2-carboxamide for use in cancer therapy and formulations comprising the same” (2020).
Several values for one entry are separate records, joined by “and”; a condition that tells them apart may be missing. Identical values can stand only once. Activity calls are given as the source filed them. The rule behind the calls is not given here.

Experiments:
[1] = target: Serine/threonine-protein kinase 10 (Homo sapiens) (UniProt O94804); assay: Inhibition of human LOK assessed as percent of control at 2000 nM by KINOMEscan assay relative to control; set-up: scale not given: the % may be the effect or the level left
[2] = target: 3-phosphoinositide-dependent protein kinase 1 (Homo sapiens) (UniProt O15530); assay: Inhibition of human PDPK1 assessed as percent of control at 2000 nM by KINOMEscan assay relative to control; set-up: scale not given: the % may be the effect or the level left
Chain of 3-phosphoinositide-dependent protein kinase 1 (Homo sapiens) (O15530 whole entry, canonical isoform): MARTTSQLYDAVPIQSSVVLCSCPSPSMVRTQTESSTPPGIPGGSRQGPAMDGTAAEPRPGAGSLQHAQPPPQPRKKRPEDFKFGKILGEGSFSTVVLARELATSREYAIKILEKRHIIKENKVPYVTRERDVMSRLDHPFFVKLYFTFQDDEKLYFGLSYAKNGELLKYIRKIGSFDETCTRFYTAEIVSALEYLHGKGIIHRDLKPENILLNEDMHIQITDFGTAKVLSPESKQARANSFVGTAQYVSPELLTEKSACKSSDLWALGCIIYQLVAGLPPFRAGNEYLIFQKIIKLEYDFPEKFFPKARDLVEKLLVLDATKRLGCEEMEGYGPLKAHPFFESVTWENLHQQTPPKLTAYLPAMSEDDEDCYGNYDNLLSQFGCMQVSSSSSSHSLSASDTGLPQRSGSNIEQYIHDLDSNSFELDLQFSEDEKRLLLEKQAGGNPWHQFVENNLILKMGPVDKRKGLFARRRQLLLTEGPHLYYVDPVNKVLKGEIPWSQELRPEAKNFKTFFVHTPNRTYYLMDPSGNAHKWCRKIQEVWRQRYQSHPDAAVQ

[3] = test system: Phosphatidylinositol 4,5-bisphosphate 3-kinase catalytic subunit alpha isoform (Homo sapiens), P42336 [C420R]; assay: Inhibition of human PIK3CA C420R mutant assessed as percent of control at 2000 nM by KINOMEscan assay relative to control; set-up: scale not given: the % may be the effect or the level left
[4] = target: Myosin light chain kinase, smooth muscle (Homo sapiens) (UniProt Q15746); assay: Inhibition of human MYLK assessed as percent of control at 2000 nM by KINOMEscan assay relative to control; set-up: scale not given: the % may be the effect or the level left
[5] = target: Phosphatidylinositol 4-phosphate 3-kinase C2 domain-containing subunit beta (Homo sapiens) (UniProt O00750); assay: Inhibition of human PIK3C2B assessed as percent of control at 2000 nM by KINOMEscan assay relative to control; set-up: scale not given: the % may be the effect or the level left
[6] = target: Cyclin-dependent kinase-like 3 (Homo sapiens) (UniProt Q8IVW4); assay: Inhibition of human CDKL3 assessed as percent of control at 2000 nM by KINOMEscan assay relative to control; set-up: scale not given: the % may be the effect or the level left
Chain of Cyclin-dependent kinase-like 3 (Homo sapiens) (Q8IVW4 whole entry, looked up, canonical isoform): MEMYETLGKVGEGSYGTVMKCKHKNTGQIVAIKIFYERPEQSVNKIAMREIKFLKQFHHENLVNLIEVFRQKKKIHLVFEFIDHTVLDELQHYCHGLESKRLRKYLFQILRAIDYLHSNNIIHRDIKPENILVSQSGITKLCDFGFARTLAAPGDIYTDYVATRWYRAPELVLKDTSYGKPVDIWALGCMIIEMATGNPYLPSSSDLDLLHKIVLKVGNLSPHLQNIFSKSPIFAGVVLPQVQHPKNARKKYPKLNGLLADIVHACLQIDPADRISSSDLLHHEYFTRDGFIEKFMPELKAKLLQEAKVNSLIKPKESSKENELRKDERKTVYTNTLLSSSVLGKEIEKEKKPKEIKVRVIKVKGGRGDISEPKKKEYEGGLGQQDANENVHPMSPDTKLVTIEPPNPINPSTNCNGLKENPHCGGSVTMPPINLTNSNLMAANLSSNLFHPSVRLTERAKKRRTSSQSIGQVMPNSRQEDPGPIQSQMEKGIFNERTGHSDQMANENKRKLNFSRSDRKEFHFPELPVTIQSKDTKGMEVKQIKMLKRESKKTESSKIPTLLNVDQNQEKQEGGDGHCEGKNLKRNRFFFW

[7] = target: Casein kinase I isoform delta (Homo sapiens) (UniProt P48730); settings: INHIBITOR, dose 2000.0 nM
Description: Inhibition of human CSNK1D at 2000 nM by KINOMEscan assay

[8] = target: Serine/threonine-protein kinase B-raf (Homo sapiens) (UniProt P15056); assay: Inhibition of human BRAF assessed as percent of control at 2000 nM by KINOMEscan assay relative to control; set-up: scale not given: the % may be the effect or the level left
[9] = target: Protein kinase C eta type (Homo sapiens) (UniProt P24723); assay: Inhibition of human PRKCH assessed as percent of control at 2000 nM by KINOMEscan assay relative to control; set-up: scale not given: the % may be the effect or the level left
[10] = target: Mitogen-activated protein kinase kinase kinase 1 (Homo sapiens) (UniProt Q13233); assay: Inhibition of human MAP3K1 assessed as percent of control at 2000 nM by KINOMEscan assay relative to control; set-up: scale not given: the % may be the effect or the level left
[11] = target: Serine/threonine-protein kinase BRSK1 (Homo sapiens) (UniProt Q8TDC3); assay: Inhibition of human BRSK1 assessed as percent of control at 2000 nM by KINOMEscan assay relative to control; set-up: scale not given: the % may be the effect or the level left
[12] = target: Serine/threonine-protein kinase TAO2 (Homo sapiens) (UniProt Q9UL54); assay: Inhibition of human TAOK2 assessed as percent of control at 2000 nM by KINOMEscan assay relative to control; set-up: scale not given: the % may be the effect or the level left
Chain of Serine/threonine-protein kinase TAO2 (Homo sapiens) (Q9UL54 whole entry): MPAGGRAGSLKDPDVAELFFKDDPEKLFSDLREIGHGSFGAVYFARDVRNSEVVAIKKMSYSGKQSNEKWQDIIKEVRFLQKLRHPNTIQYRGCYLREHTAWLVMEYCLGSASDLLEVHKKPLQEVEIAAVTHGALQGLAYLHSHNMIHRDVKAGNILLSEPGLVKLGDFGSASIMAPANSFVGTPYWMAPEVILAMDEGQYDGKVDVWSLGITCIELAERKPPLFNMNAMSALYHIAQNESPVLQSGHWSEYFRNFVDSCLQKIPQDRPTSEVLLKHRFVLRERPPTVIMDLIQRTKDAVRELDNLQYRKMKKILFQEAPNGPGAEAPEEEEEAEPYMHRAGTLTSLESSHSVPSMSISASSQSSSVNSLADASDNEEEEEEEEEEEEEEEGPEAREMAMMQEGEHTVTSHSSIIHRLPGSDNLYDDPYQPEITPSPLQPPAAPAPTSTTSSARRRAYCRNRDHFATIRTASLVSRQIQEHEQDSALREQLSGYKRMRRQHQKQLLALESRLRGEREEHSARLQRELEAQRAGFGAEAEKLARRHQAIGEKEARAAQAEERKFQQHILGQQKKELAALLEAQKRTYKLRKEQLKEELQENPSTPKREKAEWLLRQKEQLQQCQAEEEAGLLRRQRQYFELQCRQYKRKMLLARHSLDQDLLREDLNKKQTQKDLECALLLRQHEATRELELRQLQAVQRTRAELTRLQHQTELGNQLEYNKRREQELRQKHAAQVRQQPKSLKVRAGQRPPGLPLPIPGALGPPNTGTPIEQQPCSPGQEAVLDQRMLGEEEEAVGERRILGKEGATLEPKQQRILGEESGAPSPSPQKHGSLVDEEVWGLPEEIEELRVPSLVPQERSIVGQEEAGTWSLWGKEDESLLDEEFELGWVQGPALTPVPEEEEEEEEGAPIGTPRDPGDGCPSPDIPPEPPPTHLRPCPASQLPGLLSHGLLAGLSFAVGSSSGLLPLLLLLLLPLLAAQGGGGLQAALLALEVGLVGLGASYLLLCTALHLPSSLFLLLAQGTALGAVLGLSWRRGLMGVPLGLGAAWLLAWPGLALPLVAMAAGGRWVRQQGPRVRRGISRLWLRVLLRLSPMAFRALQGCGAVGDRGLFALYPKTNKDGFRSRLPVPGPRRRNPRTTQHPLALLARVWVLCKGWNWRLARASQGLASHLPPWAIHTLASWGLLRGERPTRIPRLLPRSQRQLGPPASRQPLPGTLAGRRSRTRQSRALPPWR

[13] = target: BMP-2-inducible protein kinase (Homo sapiens) (UniProt Q9NSY1); assay: Inhibition of human BIKE assessed as percent of control at 2000 nM by KINOMEscan assay relative to control; set-up: scale not given: the % may be the effect or the level left
[14] = target: Aurora kinase A (Homo sapiens) (UniProt O14965); assay: Inhibition of human AURKA assessed as percent of control at 2000 nM by KINOMEscan assay relative to control; set-up: scale not given: the % may be the effect or the level left
[15] = target: Mitogen-activated protein kinase kinase kinase 13 (Homo sapiens) (UniProt O43283); assay: Inhibition of human LZK assessed as percent of control at 2000 nM by KINOMEscan assay relative to control; set-up: scale not given: the % may be the effect or the level left
Chain of Mitogen-activated protein kinase kinase kinase 13 (Homo sapiens) (O43283 whole entry): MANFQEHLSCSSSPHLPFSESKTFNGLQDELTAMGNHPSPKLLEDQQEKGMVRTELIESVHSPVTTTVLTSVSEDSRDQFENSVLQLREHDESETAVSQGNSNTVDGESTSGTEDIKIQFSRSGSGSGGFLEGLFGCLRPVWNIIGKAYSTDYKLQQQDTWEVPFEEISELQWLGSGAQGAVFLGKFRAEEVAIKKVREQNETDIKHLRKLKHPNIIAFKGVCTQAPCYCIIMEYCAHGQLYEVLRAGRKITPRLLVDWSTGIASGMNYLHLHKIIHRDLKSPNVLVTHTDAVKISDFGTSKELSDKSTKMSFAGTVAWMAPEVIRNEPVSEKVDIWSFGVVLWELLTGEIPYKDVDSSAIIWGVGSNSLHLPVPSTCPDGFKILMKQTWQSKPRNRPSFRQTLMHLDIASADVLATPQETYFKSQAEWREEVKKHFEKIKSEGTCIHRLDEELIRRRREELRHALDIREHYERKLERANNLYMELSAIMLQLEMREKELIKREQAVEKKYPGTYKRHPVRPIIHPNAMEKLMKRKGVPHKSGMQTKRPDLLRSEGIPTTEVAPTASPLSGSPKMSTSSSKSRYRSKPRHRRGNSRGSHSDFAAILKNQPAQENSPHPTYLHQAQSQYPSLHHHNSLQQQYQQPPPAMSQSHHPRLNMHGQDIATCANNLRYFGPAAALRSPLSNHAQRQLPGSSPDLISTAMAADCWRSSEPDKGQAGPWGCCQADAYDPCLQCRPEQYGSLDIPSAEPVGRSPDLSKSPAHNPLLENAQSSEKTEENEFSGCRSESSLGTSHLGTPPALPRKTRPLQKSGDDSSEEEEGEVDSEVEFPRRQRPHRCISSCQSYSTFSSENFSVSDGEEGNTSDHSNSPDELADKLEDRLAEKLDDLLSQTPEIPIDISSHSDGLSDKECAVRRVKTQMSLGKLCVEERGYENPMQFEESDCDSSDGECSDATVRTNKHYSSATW

CWR22R = assay: Antitumor activity against human 22Rv1 cells expressing AR-V7 xenografted in male nude mouse assessed as suppression of tumor growth at 50 mg/kg, administered once a day for 40 days; type: functional, organism-based
[16] = target: Ephrin type-B receptor 4 (Homo sapiens) (UniProt P54760); assay: Inhibition of human EPHB4 assessed as percent of control at 2000 nM by KINOMEscan assay relative to control; set-up: scale not given: the % may be the effect or the level left
[17] = target: Inhibitor of nuclear factor kappa-B kinase subunit epsilon (Homo sapiens) (UniProt Q14164); assay: Inhibition of human IKK-epsilon assessed as percent of control at 2000 nM by KINOMEscan assay relative to control; set-up: scale not given: the % may be the effect or the level left
[18] = target: Serine/threonine-protein kinase mTOR (Homo sapiens) (UniProt P42345); assay: Inhibition of human MTOR assessed as percent of control at 2000 nM by KINOMEscan assay relative to control; set-up: scale not given: the % may be the effect or the level left
[19] = target: Tyrosine-protein kinase Fes/Fps (Homo sapiens) (UniProt P07332); assay: Inhibition of human FES assessed as percent of control at 2000 nM by KINOMEscan assay relative to control; set-up: scale not given: the % may be the effect or the level left
[20] = target: Tyrosine-protein kinase Lck (Homo sapiens) (UniProt P06239); assay: Inhibition of human LCK assessed as percent of control at 2000 nM by KINOMEscan assay relative to control; set-up: scale not given: the % may be the effect or the level left
Chain of Tyrosine-protein kinase Lck (Homo sapiens) (P06239 2-509 limits assumed): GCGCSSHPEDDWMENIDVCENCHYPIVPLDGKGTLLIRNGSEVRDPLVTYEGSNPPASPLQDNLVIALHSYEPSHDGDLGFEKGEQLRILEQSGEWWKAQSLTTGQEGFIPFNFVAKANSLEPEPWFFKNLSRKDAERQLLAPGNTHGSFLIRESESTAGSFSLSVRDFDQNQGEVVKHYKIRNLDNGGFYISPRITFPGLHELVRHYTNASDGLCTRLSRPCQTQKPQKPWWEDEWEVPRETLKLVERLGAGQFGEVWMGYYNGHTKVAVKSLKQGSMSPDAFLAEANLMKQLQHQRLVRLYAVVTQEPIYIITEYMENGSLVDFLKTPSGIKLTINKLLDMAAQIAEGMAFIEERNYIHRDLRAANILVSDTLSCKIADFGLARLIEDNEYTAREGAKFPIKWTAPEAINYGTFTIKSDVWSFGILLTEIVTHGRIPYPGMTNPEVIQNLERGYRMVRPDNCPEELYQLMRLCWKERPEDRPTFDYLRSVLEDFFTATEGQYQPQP

[21] = target: Serine/threonine-protein kinase MARK1 (Homo sapiens) (UniProt Q9P0L2); assay: Inhibition of human MARK1 assessed as percent of control at 2000 nM by KINOMEscan assay relative to control; set-up: scale not given: the % may be the effect or the level left
[22] = target: Tyrosine-protein kinase Fyn (Homo sapiens) (UniProt P06241); assay: Inhibition of human FYN assessed as percent of control at 2000 nM by KINOMEscan assay relative to control; set-up: scale not given: the % may be the effect or the level left
Chain of Tyrosine-protein kinase Fyn (Homo sapiens) (P06241 2-537 limits assumed): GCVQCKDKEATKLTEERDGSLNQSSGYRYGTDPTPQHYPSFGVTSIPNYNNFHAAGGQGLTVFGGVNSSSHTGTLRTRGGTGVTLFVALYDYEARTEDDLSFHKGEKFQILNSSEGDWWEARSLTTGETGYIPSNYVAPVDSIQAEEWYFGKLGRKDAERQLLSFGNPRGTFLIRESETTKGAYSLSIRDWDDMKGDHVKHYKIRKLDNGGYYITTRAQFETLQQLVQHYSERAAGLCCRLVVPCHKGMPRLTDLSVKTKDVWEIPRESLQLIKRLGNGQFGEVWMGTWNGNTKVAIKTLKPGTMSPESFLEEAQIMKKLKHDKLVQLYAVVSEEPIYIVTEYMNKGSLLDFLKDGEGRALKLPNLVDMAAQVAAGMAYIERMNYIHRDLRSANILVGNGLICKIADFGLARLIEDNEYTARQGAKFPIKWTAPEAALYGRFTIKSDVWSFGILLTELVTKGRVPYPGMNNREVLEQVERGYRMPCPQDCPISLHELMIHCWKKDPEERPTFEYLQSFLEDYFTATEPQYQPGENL

[23] = target: Serine/threonine-protein kinase Chk2 (Homo sapiens) (UniProt O96017); assay: Inhibition of human CHEK2 assessed as percent of control at 2000 nM by KINOMEscan assay relative to control; set-up: scale not given: the % may be the effect or the level left
[24] = target: Homeodomain-interacting protein kinase 4 (Homo sapiens) (UniProt Q8NE63); assay: Inhibition of human HIPK4 assessed as percent of control at 2000 nM by KINOMEscan assay relative to control; set-up: scale not given: the % may be the effect or the level left
Chain of Homeodomain-interacting protein kinase 4 (Homo sapiens) (Q8NE63 whole entry, canonical isoform): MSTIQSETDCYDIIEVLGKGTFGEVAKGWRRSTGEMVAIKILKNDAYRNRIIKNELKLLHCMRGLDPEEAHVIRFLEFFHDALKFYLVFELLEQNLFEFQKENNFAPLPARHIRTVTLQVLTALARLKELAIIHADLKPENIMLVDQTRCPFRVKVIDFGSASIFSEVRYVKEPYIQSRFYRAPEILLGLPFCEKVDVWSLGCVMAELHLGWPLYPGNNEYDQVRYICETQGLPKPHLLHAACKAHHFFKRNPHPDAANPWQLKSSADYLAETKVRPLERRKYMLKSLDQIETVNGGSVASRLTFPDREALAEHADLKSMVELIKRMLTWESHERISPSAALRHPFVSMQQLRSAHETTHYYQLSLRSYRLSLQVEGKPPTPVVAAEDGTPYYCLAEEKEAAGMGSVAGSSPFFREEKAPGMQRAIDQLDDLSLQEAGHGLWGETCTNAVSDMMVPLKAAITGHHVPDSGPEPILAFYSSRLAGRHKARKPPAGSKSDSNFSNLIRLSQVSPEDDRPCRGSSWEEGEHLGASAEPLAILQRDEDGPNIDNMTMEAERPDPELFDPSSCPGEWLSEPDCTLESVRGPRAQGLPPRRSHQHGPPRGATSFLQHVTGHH

[25] = target: Phosphatidylinositol 4,5-bisphosphate 3-kinase catalytic subunit gamma isoform (Homo sapiens) (UniProt P48736); assay: Inhibition of human PIK3CG assessed as percent of control at 2000 nM by KINOMEscan assay relative to control; set-up: scale not given: the % may be the effect or the level left
[26] = test system: Tyrosine-protein kinase ABL1 (Homo sapiens), P00519 [F317I]; assay: Inhibition of phosphorylated human ABL1 F317I mutant assessed as percent of control at 2000 nM by KINOMEscan assay relative to control; set-up: scale not given: the % may be the effect or the level left
[27] = test system: Tyrosine-protein kinase ABL1 (Homo sapiens), P00519 [Y253F]; assay: Inhibition of phosphorylated human ABL1 Y253F mutant assessed as percent of control at 2000 nM by KINOMEscan assay relative to control; set-up: scale not given: the % may be the effect or the level left
[28] = target: SRSF protein kinase 2 (Homo sapiens) (UniProt P78362); assay: Inhibition of human SRPK2 assessed as percent of control at 2000 nM by KINOMEscan assay relative to control; set-up: scale not given: the % may be the effect or the level left
[29] = target: Calcium/calmodulin-dependent protein kinase kinase 1 (Homo sapiens) (UniProt Q8N5S9); assay: Inhibition of human CAMKK1 assessed as percent of control at 2000 nM by KINOMEscan assay relative to control; set-up: scale not given: the % may be the effect or the level left
Myc-CaP = assay: Antitumor activity against murine castration-resistant Myc-CaP cells xenografted in male FVB mouse assessed as suppression of tumor volume in presence of enzalutamide; type: functional

Compound: CN(C)C(=O)c1ccc(N2CCCN(c3ccnc4sc(C(N)=O)c(N)c34)CC2)cc1
- Activity [1]: 84% and 69%
- Activity [2]: 100% and 96%
- Activity [3]: 100% and 86%
- Activity [4]: 74% and 71%
- Activity [5]: 89% and 87%
- Activity [6]: 100%
- inhibition [7]: > 65%
- Activity [8]: 100% and 96%
- Activity [9]: 80% and 96%
- Activity [10]: 84% and 90%
- Activity [11]: 86% and 97%
- Activity [12]: 92% and 93%
- Activity [13]: 100% and 96%
- Activity [14]: 98% and 99%
- Activity [15]: 100% and 87%
- Activity (CWR22R): Active
- Activity [16]: 100%
- Activity [17]: 100%
- Activity [18]: 88% and 97%
- Activity [19]: 100%
- Activity [20]: 91% and 100%
- Activity [21]: 100%
- Activity [22]: 99% and 97%
- Activity [23]: 92%
- Activity [24]: 100%
- Activity [25]: 79% and 76%
- Activity [26]: 88% and 84%
- Activity [27]: 100% and 81%
- Activity [28]: 93% and 100%
- Activity [29]: 96% and 100%
- Activity (Myc-CaP): Active
